This test deals with P. falciparum 3D7 growth, pLDH absorbance. Kind of test: P. falciparum 3D7 growth inhibition, dose response, strain 3D7 (AID 2305).

Our source for the IC50 values is PubChem BioAssay AID2305 (GlaxoSmithKline (GSK), 2010).

As usually defined, the IC50 is the concentration at which inhibition is half-maximal. A high value points to lower potency.

In turn, `CCOC(=O)c1ccc(-c2c(C(F)(F)F)noc2-c2cc(CC)c(OC)cc2O)o1` returned an IC50 of 210 nM. That is a sub-micromolar value. The value for `NS(=O)(=O)c1cccc(Nc2nccc(-c3c(-c4cccc(NC(=O)c5c(F)cccc5F)c4)nn4ccccc34)n2)c1` was 70 nM; that for `Clc1cnc2ccc3c(c2c1CCN1CCC(NCc2cc4c(cn2)OCCO4)CC1)OCCO3` was 720 nM; that for `NC(=O)c1ccc(C(=O)Nc2cccc(-c3cccc(-c4nc5ccc(C(F)(F)F)cc5[nH]4)c3)c2)cc1` was 230 nM. The result for `NC(=O)C1Cc2ccccc2CN1CC(=O)Nc1ccccc1Sc1ccccc1` (stereo not given) reads 70 nM.

With `Cc1noc(C)c1-c1cccc(CNCc2ccc(-c3cccc(-c4nc5c(C)cccc5[nH]4)c3)cc2)c1`, the IC50 was 220 nM. `Cc1onc(-c2ccccc2)c1-c1nc(NCc2ccccc2Cl)no1` gave an IC50 of 700 nM. The value for `O=S(=O)(c1ccc2ccccc2c1)N1CCCN(Cc2ccc(OCCCN3CCCCC3)cc2)CC1` was 1100 nM; that for `COc1ccc2nccc([C@@H](O)CN3CCC(NCc4ccc5c(c4)NC(=O)C(C)(C)O5)CC3)c2c1` was 400 nM. The result for `CN(C)c1ccc(-c2csc(C(=O)NC3CCCCN(CCC(C)(C)C)C3)c2)cc1` (stereo not given) reads 1050 nM; that for `N#Cc1cccc(Nc2ncc3c(-c4cccc(NC(=O)Cc5cccc(Cl)c5)c4)c[nH]c3n2)c1`, 420 nM; that for `O=S(=O)(Nc1cccc(F)c1CNCc1ccccn1)c1ccc(Cl)c(Cl)c1`, 890 nM. The value for `COc1ccc2nc3cc(Cl)ccc3c(NCCc3ccccc3)c2c1` was 950 nM; that for `COc1ccc2nc(C)cc(NN=Cc3ccc(F)cc3)c2c1` was 190 nM; that for `FC(F)(F)c1cccc(CNCC2CCN(CC3CCCCC3)CC2)c1` was 400 nM. Turning to `Fc1ccc2nc(-c3ccc(-c4ccc(CNCc5cnn(-c6ccccc6)n5)cc4)cc3)[nH]c2c1`, the IC50 is 540 nM. The value for `CC(=O)C1=NN(c2ccc(Cl)cc2)C(c2cccs2)N1c1ccccc1` (stereo not given) was 400 nM. `CCCS(=O)(=O)N1CCC(CO)(Cc2ccccc2C(F)(F)F)CC1` registered an IC50 of 890 nM. Against the preceding compound, the IC50 is about 2.2-fold higher. The value for `Cc1ccc2nc(-c3cc(-c4ccc(OCc5ccccc5)cc4)cnc3N)[nH]c2c1` was 1680 nM; that for `CCCCCc1cc(O)c2c3c(c(=O)oc2c1)CN(C)CC3` was 120 nM.

In the case of `Cc1cc(Cl)c(S(=O)(=O)NC(C)(C)C)cc1OCC(=O)NC1CCCCC1`, the IC50 is 550 nM. The result for `CCCCN(CCCC)CCCCCCNc1c2ccccc2nc2ccccc12` reads 780 nM. The value for `COC(=O)CCCOc1cc(Cc2cnc(N)nc2N)cc(OC)c1OC` was 770 nM; that for `O=C(Nc1ccc(Cl)c(C(F)(F)F)c1)NC1CCN(CCCCCNC(=O)[C@@H]2C[C@H]2c2ccc(Cl)c(Cl)c2)CC1` was 680 nM. The result for `COc1ccc(S(=O)(=O)Nc2cc(Br)cc3c2OCCC3)cc1N1CCN(C(=O)C(Cl)(Cl)Cl)CC1` reads 870 nM; that for `CC(CN1CCN(C)CC1)C(=O)Nc1cccc(-c2cccc(-c3nc4ccc(F)cc4[nH]3)c2)c1` (stereo not given), 270 nM; that for `Oc1[nH]c2ccccc2c1N=NC(=S)N1CCOCC1`, 910 nM. Compound `NCc1ccc(-c2ccccc2CN(C(=O)Nc2ccccc2)C2CCN(Cc3ccccc3)CC2)cc1` returned an IC50 of 880 nM. The value for `CN1CCN(CCCN(Cc2cccc(-c3cccc(CNC4CCCC4)c3)c2)C(=O)/C=C/c2ccccc2)CC1` was 780 nM; that for `O=C(Nc1ccc(C(F)(F)F)cc1)NC1CCN(CCCCCNC(=O)[C@@H]2C[C@H]2c2ccc(Cl)c(Cl)c2)CC1` was 630 nM; that for `O=c1[nH]nc(-c2ccc(N3CCCC3)c([N+](=O)[O-])c2)c2ccccc12` was 630 nM. The result for `O=C(/C=C/c1ccc(Cl)c(Cl)c1)NC1CCC(CN2CCC(Cc3cc4ccccc4[nH]3)CC2)CC1` (stereo not given) reads 510 nM. The value for `CNc1ccc(CNCc2cccc(-c3ccc(-c4nc5ccccc5[nH]4)cc3)c2)cc1` was 300 nM; that for `CC(C)c1ccc(CN2CCC(CNC(=O)c3cc(-c4cccc(F)c4)cs3)C2)cc1` (stereo not given) was 1660 nM. Compound `Cc1ccc(NC(=O)c2ccc(NCCCN3CC(C)CC(C)C3)c([N+](=O)[O-])c2)cc1F` (stereo not given) came in with an IC50 of 710 nM. The value for `Cc1ccc(C(=O)NC2C(=O)NC2c2ccccc2)c(C)c1` (stereo not given) was 950 nM; that for `Fc1ccc2nc(-c3ccc(-c4ccc(CNCCc5ccncc5)cc4)s3)[nH]c2c1` was 140 nM. Compound `CN(C)c1ccc(N=C2N=C(Nc3ccc(N(C)C)cc3)c3ccccc32)cc1` gave an IC50 of 850 nM. Compared with the last compound, the IC50 is about 6.1-fold higher. Regarding `CCOC(=O)NC1=NC(C)(C)N(OCCCOc2ccc(C)cc2C)C(NC(=O)OCC)=N1`, the IC50 is 130 nM. The value for `Cc1ccc(Oc2cnn(C)c(=O)c2Nc2cccc(C(=O)NCCc3ccccn3)c2)c(C)c1` was 490 nM; that for `COC(=O)/C=C/c1ccc(CC(C)NCC(O)c2cccc(Cl)c2)cc1` (stereo not given) was 750 nM. The compound `O=C(Cn1c(CCc2cccc(F)c2F)nc(=O)c2ccccc21)N(CCN1CCCC1)Cc1ccc(-c2ccc(C(F)(F)F)cc2)cc1` had an IC50 of 710 nM. The value for `CC(C)CCN(Cc1cncn1Cc1ccccc1F)C(=O)c1cncc(-c2ccccc2)c1` was 790 nM.

`COc1cc2nc(N3CCC(CNC(=O)c4cccc5cccnc45)CC3)nc(N)c2cc1OC` yielded an IC50 of 1700 nM. The value for `CC(C)CCN1CCC(Oc2ccc(NC(=O)c3ccc(F)cc3)cc2Cl)CC1` was 720 nM; that for `COc1ccc2ccccc2c1C=NNc1cc(C)nc2cc(C(F)(F)F)ccc12` was 1040 nM; that for `CC1CN(C(=O)c2sc3ccccc3c2Cl)CC(C)O1` (stereo not given) was 90 nM. The value for `COc1cc(NCCCNC(=O)c2ccc(Cl)c(Cl)c2)nc2ccccc12` was 140 nM; that for `CCCCOC(=O)C1=C(C)NC2=C(C(=O)CCC2)C1c1ccc(OC)c(Br)c1` (stereo not given) was 600 nM; that for `CN(C)CCCOc1cccc(NC(=O)Nc2ccc(-c3ccccc3)cc2)c1` was 870 nM. The value for `Cc1ccc(C)c(Cn2ccc3nc(Cl)nc(Cl)c32)c1` was 910 nM; that for `CCCN1CCN(CCCCNc2c3ccccc3nc3ccccc23)CC1` was 410 nM; that for `COc1cc(C(=O)Nc2ccc3nc(N4CCN(C)CC4)cc(C)c3c2)cc(OC)c1OC` was 290 nM. Compound `CCOc1c(N2CCN(CCCCNC(=O)c3ccc(NC(=O)c4ccc(Cl)cc4)cc3)CC2)ccc2ccccc12` yielded an IC50 of 680 nM.

The compound `CC(C)(CNC(=O)[C@@H]1CCCCN1)c1nc(-c2ccc(Cl)c(O)c2)c(-c2ccncc2)[nH]1` showed an IC50 of 840 nM. The value for `CCN=C1NC2=C(CC(C(C)(C)C)CC2)C2(CCC(C(C)(C)C)CC2)S1` (stereo not given) was 830 nM. The result for `CC(C)NCc1ccc(-c2ccc(-c3nc4ccc(C(F)(F)F)cc4[nH]3)s2)cc1` reads 180 nM. The value for `O=S(=O)(NCCN1CCCC1)c1cccc(-c2cccc(CNCc3ccccc3)c2)c1` was 810 nM. `COc1cc(NC(=O)/C=C/c2cc(F)cc(F)c2F)cc(OCCN2CCCCC2)c1` returned an IC50 of 150 nM. The value for `CCNc1cc(C(=O)N[C@@H](Cc2ccccc2)[C@H](O)CNCc2cccc(-n3ccnc3)c2)cc(N2CCCC2=O)c1` was 630 nM; that for `Cc1noc(C)c1-c1cccc(CNCc2ccc(-c3ccc(-c4nc5ccc(C(F)(F)F)cc5[nH]4)s3)cc2)c1` was 180 nM; that for `CCC1(c2ccccc2)N=C(N)N(CCCc2ccccc2)C1=O` (stereo not given) was 890 nM. `OC1CCCN(Cc2cccc(-c3ccc(-c4nc5ccc(F)cc5[nH]4)cc3)c2)C1` (stereo not given) had an IC50 of 780 nM. The result for `Cc1cc(N2CCC(N(C)C)C2)nc(Nc2ccc(Cl)cc2)n1` (stereo not given) reads 520 nM; that for `CO/C(=C\C=C\c1cc2cc(Cl)c(Cl)cc2[nH]1)C(=O)NCCCN1CCN(c2cccc(OCC(=O)Nc3cccc(C(=O)c4ccccc4)c3)c2)CC1`, 690 nM; that for `CCOc1cc(C(=O)Nc2ccccc2N2CCN(S(C)(=O)=O)CC2)cc(OCC)c1OCC`, 650 nM. The value for `Cc1[nH]c(C)c(-c2ccc(OCc3cc(C(F)(F)F)cc(C(F)(F)F)c3)nc2)c(=O)c1Cl` was 110 nM; that for `COc1ccc(CN(C)CCCc2ccc(NC(=O)c3cccc4c(=O)c5ccccc5[nH]c34)cc2)cc1OC` was 1370 nM.

With `Cc1ccc(C(=O)NC2CCN(CCNC(=O)Nc3cc(C)nc4ccccc34)CC2)cc1`, the IC50 came out at 490 nM.

With `O=C1c2ccccc2-n2c1nc1ccccc1c2=O`, the half-maximal inhibitory concentration (IC50) is 860 nM. The result for `COc1ccc(C(=O)[C@H]2C[C@@H]2CN2CC=C(c3c[nH]c4ccc(OC)nc34)CC2)cc1` reads 480 nM; that for `c1ccc(C2CCC(N3CCC(N4CCCC4)CC3)CC2)cc1` (stereo not given), 670 nM; that for `CCN(CC)CCN(Cc1ccc(-c2ccc(C(F)(F)F)cc2)cc1)C(=O)Cn1c(CCc2cccc(F)c2F)nc(=O)c2cc(F)ccc21`, 830 nM.

In turn, `Cc1[nH]c(C)c(-c2ccc(-c3ccc(OC(F)(F)F)cc3)nc2)c(=O)c1Cl` showed an IC50 of 200 nM. The value for `CC(C)C[C@H](NC(=O)c1cc(-c2ccc(F)cc2)no1)C(=O)O` (tested in a mixture with another compound) was 980 nM; that for `CC1(C)[C@H]2CC[C@@H](CNc3nc(NCC(=O)Nc4ccc5ccccc5c4)nc(N4CCC(N5CCCC5)CC4)n3)[C@@H]1C2` was 1190 nM. The result for `COc1cccc([C@@H](CC(=O)Nc2cc(C(F)(F)F)ccc2OC)Nc2ccc(C#N)c3ccccc23)c1` reads 990 nM. The result for `CCN(C(=O)CSc1cc(C)c2cc(C)cc(C)c2n1)C1CCS(=O)(=O)C1` (stereo not given) reads 670 nM; that for `Cc1ccc2[nH]c3c(NCCCN4CCOCC4)ncnc3c2c1`, 940 nM. `CN1CCCC(CN2CCN(Cc3ccc(-c4cccc(-c5nc6ccc(F)cc6[nH]5)c4)cc3)CC2)C1` (stereo not given) had an IC50 of 180 nM. As to `COC(=O)c1ccc2nc(-c3cc(OC)c(O)c(C(=O)NC4CCN(Cc5ccccc5)CC4)c3)[nH]c2c1`, the IC50 turned out to be 1180 nM. Against the preceding compound, the IC50 is about 6.6-fold higher.

Compound `Nc1ncc(-c2ccc(S(=O)(=O)Nc3ccc(C(=O)N[C@@H](CCC(=O)O)C(=O)O)cc3)cc2)c(=O)[nH]1` gave a 50% inhibitory concentration (IC50) of 800 nM. The result for `Cc1cccc(-c2ccc3c(c2)CC(NCc2cccc(-n4ccnc4)c2)C3)c1` (stereo not given) reads 870 nM. The result for `CN1CCc2ccc(NC(=O)Nc3cccc(C(=O)c4ccccc4)c3)cc2C1` reads 920 nM; that for `CC(C)Cn1c(Sc2ccc(C#N)c([N+](=O)[O-])c2)nnc1-c1ccccc1Cl`, 900 nM.
